{
  "source": "patent US20120283096A1",
  "about": "“AGENT FOR IMPROVING PLANT GROWTH, SEEDS, AND METHOD FOR IMPROVING PLANT GROWTH” (Incorporated Administrative Agency National Agricu lture …, priority 2010, published 2012)",
  "key": {"[1]": {"test_system": "soybean", "assay": "Seedling establishment of soybean seeds with ammonium molybdophosphate (Example 5, FIG. 12)", "assay_type": "in vivo", "conditions": "20° C. and 30° C., after two weeks", "protocol": "(§1) As in Example 4-1, ammonium sulfate in an equivalent amount of 10 g/m^2 in terms of nitrogen and potassium chloride equivalent to 5 g/m^2 of potassium as potassium oxide were added as a solution to paddy humid soil, on the condition that the weight of dry soil is 100 kg/m^2. The soil was placed into each container (in the shape of a cylinder approximately 7 cm in diameter) in an amount equivalent to 100 g of dry soil, shaken for approximately one hour, and left at rest for two days at 4° C. It should be noted, however, that the soil-to-liquid ratio was 0.7. On this condition, the soil surface became substantially as high as the water surface. Barley seeds (branded as Nishinochikara) and soybean seeds (branded as Fukuyutaka) not subjected to treatment such as soaking in advance were soaked in water for one minute. Immediately after the extra water was removed, the seeds were put with a […] molybdenum amount of ammonium molybdophosphate (purchased from Wako Pure Chemical Industries, Ltd.) per gram of dry seed. The seeds were then half-buried in the samples of soil. […] Six containers were allotted for each condition, and the proportion of seedling establishment (proportion of individual plants that survived) was measured after two weeks."}, "[2]": {"test_system": "barley", "assay": "Seedling establishment of barley seeds with ammonium molybdophosphate (Example 5, FIG. 12)", "assay_type": "in vivo", "conditions": "20° C. and 30° C., after two weeks", "protocol": "as §1"}, "[3]": {"test_system": "wheat", "assay": "Seedling establishment of wheat seeds in humid soil (Example 6-1, FIG. 20b)", "assay_type": "in vivo", "conditions": "0.01 mmol to 0.5 mmol molybdenum per gram of dry seed, 20° C., after two weeks", "protocol": "As in Example 4-1, ammonium sulfate in an equivalent amount of 10 g/m^2 in terms of nitrogen and potassium chloride equivalent to 5 g/m^2 of potassium as potassium oxide were added as a solution to paddy humid soil in terms of 100 kg/m^2 of dry soil with a soil-to-liquid ratio of 0.7. The soil was placed into each container (in the shape of a cylinder approximately 7 cm in diameter) in an amount equivalent to 100 g of dry soil. The soil surface was flattened by giving it a slight press with a flat plate. Then, the soil was left at rest for one day at 4° C. […] The seeds were then half-buried in the soil. After that, at a constant temperature of 20° C., the water level was kept by adding water to such an extent that the seeds were slightly covered with water. Six containers were allotted for each condition, and the proportion of seedling establishment (proportion of individual plants that survived) was measured after two weeks. It should be noted that in each of FIGS. 20a and 20b, the horizontal axis represents the number of moles (mmol) of molybdenum that adhered per gram of dry seed. In each of FIGS. 20a and 20b, the dots correspond to the numbers of moles of 0, 0.01, 0.02, 0.05, 0.1, 0.2, and 0.5 mmol, starting from the left. […]"}, "[4]": {"test_system": "paddy seeds", "assay": "Possibility of growth of paddy seeds in tank farming without soil (Example 3)", "conditions": "in vivo", "protocol": "The decay-inhibiting effect of molybdenum-containing substances in tank farming without soil was examined.\nThe possibility of growth and the inhibition of decay were determined in the same manner as above."}, "[5]": {"test_system": "soybean", "assay": "Seedling establishment of soybean seeds submerged for two days (Example 6a-1, FIG. 20e)", "assay_type": "in vivo", "conditions": "0.01 mmol to 0.5 mmol molybdenum per gram of dry seed, 25° C., versus untreated seeds", "protocol": "Soil was prepared in the same manner as in Example 6-1. Next, soybean seeds (branded as Fukuyutaka) not subjected to treatment such as soaking in advance were soaked for one minute in a tenfold diluted solution of a commercially available laundry starch (manufactured by Rocket Soap Co., Ltd.; My Laundry Starch) containing approximately a little less than 10% by weight of polyvinyl alcohol. Then, the seeds were spin-dried for thirty seconds in a commercially available washing machine for removal of the extra water. […] These seeds were buried so that the upper edge of each seed was at the same height as the soil surface. In an artificially-lit (amount of light 0.4 mmol/m^2/s, lit for twelve hours per day) room at 25° C., water was added immediately after seeding so that the surface water was 15 mm high. After two days, the surface water was sucked up with a pipette for removal. Six containers were allotted for each condition, and the proportion of seedling establishment (proportion of individual plants that survived) was measured two weeks after seeding. It should be noted that in FIG. 20e, the horizontal axis represents the number of moles (mmol) of molybdenum that adhered per gram of dry seed. In FIG. 20e, the dots correspond to the numbers of moles of 0 (UNTREATED), 0.01, 0.02, 0.05, 0.1, 0.2, and 0.5 mmol, starting from the left. […]"}, "[6]": {"test_system": "paddy rice", "assay": "Seedling establishment of coated paddy seeds planted in a paddy field (Example 4-5, FIG. 22)", "assay_type": "in vivo", "conditions": "dry seeds coated with clay plus 0.1 mmol/g molybdenum; kept submerged, about one month after seeding; versus WITHOUT MATERIAL and oxygen generating agent (Cal); trihydrate", "protocol": "Dry paddy seeds (branded as Hinohikari) were prepared.\nSeparately, dry seeds (WITHOUT MATERIAL) coated solely with clay containing no molybdenum were also prepared. Furthermore, dry seeds (Cal) coated with an oxygen generating agent (Calper Powder 16, Hodogaya UPL Co., Ltd.) the same weight per dry seeds were also prepared. Calper Powder 16 is an oxygen generating agent composed mainly of calcium peroxide.\nThese dry seeds were planted in puddled soil in a paddy field in Chikugo City, Fukuoka Prefecture, by using a simultaneous puddling and planting point sowing machine. By preparing the seeds as described above and planting them by using a point sowing machine, the amount of seeding per unit area of the paddy field can be substantially uniformed. It should be noted that prior to soil puddling, 4 g/m^2 of ammonium sulfate as nitrogen and potassium sulfate containing potassium equivalent to 8 g/m^2 as potassium oxide had been applied to the paddy field. After seeding, the seeds were kept submerged without draining the water."}},
  "note": "“Also recorded” adds a separate entry of the source.",
  "data": [
    {"substance": "Triammonium 12-moblydo(VI)phosphate trihydrate [Ammonium molybdophosphate]", "values": [
      {"measurement": "proportion of seedling establishment", "setting": "[1]", "value": "improvements in proportion of seedling establishment"},
      {"measurement": "proportion of seedling establishment", "setting": "[2]", "value": "improvements in proportion of seedling establishment"},
      {"measurement": "proportion of seedling establishment", "setting": "[3]", "value": "improvements in proportion of seedling establishment"},
      {"measurement": "Possibility of growth, Amount of molybdenum or tungsten added to seed", "setting": "[4]", "value": "> 1", "unit": "mmol/g"},
      {"measurement": "proportion of seedling establishment", "setting": "[5]", "value": "improvements in proportion of seedling establishment"},
      {"measurement": "seedling establishment", "setting": "[6]", "value": "obvious improvements in seedling establishment; also recorded: most remarkable improving effect on seedling establishment"}
    ]}
  ]
}
